Data from US11591297B2, “Compound having PD-L1 expression-suppressing action” (TOHOKU UNIVERSITY, priority 2019, dated 2023).

System: Jurkat cells
Assay: Caspase 3/7 assay: apoptosis of Jurkat cells co-cultured with IFN-γ-treated A549 cells (PD-1/PD-L1 binding)
Format: cell-based
Conditions: Homo sapiens; for IC50: Jurkat cells co-cultured with A549 cells pre-cultured with IFN-γ and test compound, read-out: IC50 (50% inhibition concentration of Caspase 3/7 activity)
Source text: The supernatants of each culture liquid containing A549 cells expressing PD-L1 pre-cultured with the addition of IFN-γ or human acute T-cell leukemia cell-derived Jurkat cells expressing PD-1 pre-cultured with the addition of Phorbol 12-myristate 13-Acetate (hereinafter, referred to as “PMA”: Sigma Cat #1585) and phytohemagglutinin-L (hereinafter, referred to as “PHA-L”: Roche Cat #11249738001) were removed, the culture liquids were co-cultured in new medium. The Caspase 3/7 activity of the co-cultured Jurkat cells was measured, and the measured activity was used as an index of apoptosis. Each test compound was added into the A549 cell culture liquid during the pre-culture.
(1) A549 cells were suspended in DMEM medium at 1×10^5 cells/mL to prepare an A549 cell suspension, and the A549 cell suspension was dispensed into each well a 6 well plate in an amount of 3 mL.
(2) Separately, Jurkat cells were suspended in RPMI medium at 3×10^5 cells/mL to prepare a Jurkat cell suspension, and the Jurkat cell suspension was dispensed into a T25 flask in an amount of 5 mL.
(3) The 6-well plate of the above step (1) and the T25 flask of the above step (2) were incubated together in a CO2 incubator (at 37° C. and 5% CO2) for 24±2 hours.
(1) To 3 mL of the A549 cell culture liquid were added IFN-γ (25 ng/mL) and a test compound, and the cell culture liquid was continuously cultured. The 50 mmol/L solution of the test compound in DMSO was diluted to 100 times with DMEM medium, and then the diluted solution was added as test compound group in an amount of 3 μL, 6 μL or 12 μL (final concentration: 0.5 μmol/L, 1.0 μmol/L or 2 μmol/L). In the control group, DMSO diluted to 100 times with DMEM medium was added in an amount of 12 μL. (2) Separately, to the Jurkat cell culture liquid were added PMA (final concentration: 12.5 ng/mL) and PHA (final concentration: 250 ng/mL), and the cell culture liquid was continuously cultured. [Day 3]
Cells were separated from A549 cell culture liquid with Cell Dissociation Solution Non-enzymatic (Sigma Cat No. C5914-100ML), and the cell culture liquid was centrifuged at 300×g for 5 minutes and the supernatant thereof was removed, and then the cells were suspended in RPMI medium at 4×10^5 cells/mL to prepare an A549 cell suspension.
The Jurkat cell culture liquid was centrifuged at 300×g for 5 minutes and the supernatant thereof was removed, and then the cells therein were suspended in RPMI medium at 4×10^4 cells/mL to prepare a Jurkat cell suspension.
0.25 mL of the prepared A549 cell suspension and 0.25 mL of the prepared Jurkat cell suspension (the ratio of the number of the cells is 10:1) were added into each well in a 24-well plate. 0.25 mL of A549 cells and 0.25 mL of RPMI medium were mixed and the mixture was cultured at 37° C. and 5% CO2 to prepare an A549 blank containing only A549 cells which is not co-cultured with Jurkat cells. The PD-L1 expression in A549 cells after 2 days from IFN-γ treatment and the PD-1 expression in Jurkat cells stimulated with PMA and PHA were confirmed by staining the cells with anti-CD274-PC7 antibody (PD-L1) or anti-CD279-FITC antibody (PD-1, eBioscience Cat No. 11-9969-42) in a similar procedure to that of Test Example 2 and measuring the stained cells with a flow cytometer.
The cells were cultured under the following 6 conditions.
(IF−Comp−): Co-culture of A549 cells pre-cultured without the addition of IFN-γ and the test compound as well as Jurkat cells
(IF+Comp−): Co-culture of A549 cells pre-cultured with the addition of IFN-γ and no test compound as well as Jurkat cells
(IF+Comp+): Co-culture of A549 cells pre-cultured with the addition of IFN-γ and the test compound as well as Jurkat cells
(A:IF−Comp−): Culture of only […] A549 cells pre-cultured without the addition of IFN-γ and the test compound
(A:IF+Comp−): Culture of only A549 cells pre-cultured with the addition of IFN-γ and no test compound […]

SMILES	IC50	activity at 0.25 µM (Jurkat, 0.25 μM, control (DMSO) defined as 100%)	activity at 0.5 µM (Jurkat, 0.5 μM, control (DMSO) defined as 100%)	activity at 1 µM (Jurkat, 1 μM, control (DMSO) defined as 100%)
O=C(Nc1ccc(Oc2ccc(C(F)(F)F)cc2)cc1)C1CCCN(C(=O)c2ccc([N+](=O)[O-])cc2)C1 (stereo not shown) [Example 2, 1-(4-Nitrobenzoyl)-N-(4-(4-(trifluoromethyl)phenoxy)phenyl) piperidine-3-carboxamide]	1.1 µM	–	–	–
COc1cc(C(=O)N2CCCC(C(=O)Nc3ccc(Oc4ccc(S(F)(F)(F)(F)F)cc4)cc3)C2)ccc1O (stereo not shown) [Example 6, 1-(4-Hydroxy-3-methoxybenzoyl)-N-(4-(4-(pentafluorosulfanyl)phenoxy)phenyl)piperidine-3-carboxamide]	0.74 µM	–	–	–
O=C(Nc1ccc(Oc2ccc(S(F)(F)(F)(F)F)cc2)cc1)C1CCCN(C(=O)c2ccc([N+](=O)[O-])cc2)C1 (stereo not shown) [Example 5, 1-(4-Nitrobenzoyl)-N-(4-(4-(pentafluorosulfanyl)phenoxy)phenyl)piperidine-3-carboxamide]	0.52 µM	81.5%	55.3%	32.1%
COc1cc(C(=O)N2CCCC(C(=O)Nc3ccc(Oc4ccc(C(F)(F)F)cc4)cc3)C2)ccc1O (stereo not shown) [Example 3, 1-(4-Hydroxy-3-methoxybenzoyl)-N-(4-(4-(trifluoromethyl)phenoxy)phenyl)piperidine-3-carboxamide]	0.87 µM	–	–	–
